How the values were obtained:
[1] = system: normal embryonic kidney-derived cells (HEK293F); test: WST-8 cell proliferation assay, normal embryonic kidney-derived cells; assay type: cell-based; details: cultured for 24 hours, WST-8 assay, DMSO control = 100%
Procedure: (§1) For cell culture, RPMI1640 medium (manufactured by Gibco Co., Ltd.) and DMEM medium (manufactured by Gibco Co., Ltd.) were mixed in a ratio of 1:1 and supplied 7% FBS (fetal bovine serum, manufactured by Nichirei Biosciences Inc.) and antibiotic mixture (mixture of penicillin, streptomycin, amphotericin B Mix, 100-fold concentrated solution (Nakarai Co.). Trypsinized cells were diluted to 1×10^5 cells/ml and seeded at 400 μl/well in 48-well dishes. Immediately after seeding, the test compound (dissolved in DMSO) was added to a final concentration of 0.5%, cultured for 24 hours in a CO2 incubator under an atmosphere of 5% of CO2, at a temperature of 36° C. to 37° C. After culturing, WST-8 assay was performed. An activity value of DMSO control was set to 100%, and the activities of each cell to which the test compound was added were investigated.
(§2) To 400 μl of cells culture, 18 μl of Cell Count Reagent SF (manufactured by Nacalai Inc.) was added. After being cultured for 2 to 3 hours (in a case where activity is low, cultured for 19 hours) under an atmosphere of 5% of CO2, at a temperature of 36° C. to 37° C., the broth was stirred, and the amount of formazan produced in the broth was calculated from absorbance at a wavelength of 450 nm. Using a measured value at a wavelength of 600 nm as a control, OD450-OD600 was set to an activity value.

[2] = system: gastric cancer cells (MKN45); test: WST-8 cell proliferation assay, gastric cancer cells; assay type: cell-based, human; details: MKN45, cultured for 24 hours, WST-8 assay, DMSO control = 100%
Procedure: as §1, §2

[3] = system: acute lymphoblastic leukemia T-cells (Molt-4); test: WST-8 cell proliferation assay, acute lymphoblastic leukemia T-cells; assay type: cell-based, human; details: Molt-4, cultured for 24 hours, WST-8 assay, DMSO control = 100%
Procedure: as §1
as §2, with “value. […]” for “value.”

[4] = system: cervical cancer cells (HeLa); test: Combination with cisplatin, survival rate of tumor cells (WST-8); assay type: cell-based, human
Procedure: as §1, with “After culturing, WST-8 assay was performed. An activity value of DMSO control was set to 100%, and the activities of each cell to which the test compound was added were investigated.” left out
as §2, with “value. […]” for “value.”
The survival rate of the tumor cells was calculated, in the same manner as in Example 4 except that 15 μM of the glycoside compound and 333 μM of cisplatin were added to the medium immediately after seeding the tumor cells. […]

[5] = system: urinary bladder cancer cells (T24); test: Combination with doxorubicin, survival rate of tumor cells (WST-8); assay type: cell-based, human; details: T24, 10 μM doxorubicin alone
Procedure: as §1
as §2, with “value. […]” for “value.”

[6] = system: renal cancer cells (ACHN); test: Combination with paclitaxel, survival rate of tumor cells (WST-8); assay type: cell-based, human; details: 29 nM paclitaxel alone
Procedure: as §1, with “After culturing, WST-8 assay was performed. An activity value of DMSO control was set to 100%, and the activities of each cell to which the test compound was added were investigated.” left out
as §2, with “value. […]” for “value.”
A survival rate of the tumor cells was calculated, in the same manner as in Example 4 except that 5 μM of the glycoside compound and 29 nM of paclitaxel were added to the medium immediately after seeding the tumor cells.

CCCCCCCC(=O)O[C@@H]1[C@H](OC[C@@H](O)[C@@H](O)[C@H](O)[C@H](O)[C@@H](O)CO)O[C@H](COC(=O)CCCCC)[C@@H](OC(=O)CCCCC)[C@@H]1OC(=O)CCCCC [Preparation Example 24, D-glycero-D-galactoheptitol-1-yl 3,4,6-tri-O-hexanoyl-2-O-octanoyl-β-D-mannopyranoside]
IC50 [1]: 21.8 µM
IC50 [2]: 16 µM
IC50 [3]: 8.1 µM

N.N.[Cl][Pt][Cl] [cisplatin]
Survival Rate after 19 Hours ([4]; 42 μM cisplatin alone, WST-8 incubated for 19 hours): 106.8%
Survival Rate after 2 Hours ([4]; 333 μM cisplatin alone, WST-8 incubated for 2 hours): 58.8%

COc1cccc2c1C(=O)c1c(O)c3c(c(O)c1C2=O)C[C@@](O)(C(=O)CO)C[C@@H]3O[C@H]1C[C@H](N)[C@H](O)[C@H](C)O1 [doxorubicin]
survival rate of the tumor cells [5]: 57.3%

CC(=O)O[C@H]1C(=O)[C@@]2(C)[C@H]([C@H](OC(=O)c3ccccc3)[C@]3(O)C[C@H](OC(=O)[C@H](O)[C@@H](NC(=O)c4ccccc4)c4ccccc4)C(C)=C1C3(C)C)[C@]1(OC(C)=O)CO[C@@H]1C[C@@H]2O [paclitaxel]
survival rate of the tumor cells [6]: 63.8%

Source: US9828406B2, “Antitumor agent” (KINKI UNIVERSITY, priority 2011, dated 2017)
